Our source for the IC50 and inhibition values is paper PMC10343299, “S-Ethyl-Isothiocitrullin-Based Dipeptides and 1,2,4-Oxadiazole Pseudo-Dipeptides: Solid Phase Synthesis and Evaluation as NO Synthase Inhibitors” (Molecules, 2023).

The term IC50 denotes the concentration that gives 50% inhibition.

The test has as its target T1, mouse iNOS (Mus musculus, UniProt P29477).
T1 construct: Full-length recombinant rat nNOS, mouse iNOS, bovine eNOS; made in house; host or cells: Escherichia coli
T1 sequence (P29477 1-1144): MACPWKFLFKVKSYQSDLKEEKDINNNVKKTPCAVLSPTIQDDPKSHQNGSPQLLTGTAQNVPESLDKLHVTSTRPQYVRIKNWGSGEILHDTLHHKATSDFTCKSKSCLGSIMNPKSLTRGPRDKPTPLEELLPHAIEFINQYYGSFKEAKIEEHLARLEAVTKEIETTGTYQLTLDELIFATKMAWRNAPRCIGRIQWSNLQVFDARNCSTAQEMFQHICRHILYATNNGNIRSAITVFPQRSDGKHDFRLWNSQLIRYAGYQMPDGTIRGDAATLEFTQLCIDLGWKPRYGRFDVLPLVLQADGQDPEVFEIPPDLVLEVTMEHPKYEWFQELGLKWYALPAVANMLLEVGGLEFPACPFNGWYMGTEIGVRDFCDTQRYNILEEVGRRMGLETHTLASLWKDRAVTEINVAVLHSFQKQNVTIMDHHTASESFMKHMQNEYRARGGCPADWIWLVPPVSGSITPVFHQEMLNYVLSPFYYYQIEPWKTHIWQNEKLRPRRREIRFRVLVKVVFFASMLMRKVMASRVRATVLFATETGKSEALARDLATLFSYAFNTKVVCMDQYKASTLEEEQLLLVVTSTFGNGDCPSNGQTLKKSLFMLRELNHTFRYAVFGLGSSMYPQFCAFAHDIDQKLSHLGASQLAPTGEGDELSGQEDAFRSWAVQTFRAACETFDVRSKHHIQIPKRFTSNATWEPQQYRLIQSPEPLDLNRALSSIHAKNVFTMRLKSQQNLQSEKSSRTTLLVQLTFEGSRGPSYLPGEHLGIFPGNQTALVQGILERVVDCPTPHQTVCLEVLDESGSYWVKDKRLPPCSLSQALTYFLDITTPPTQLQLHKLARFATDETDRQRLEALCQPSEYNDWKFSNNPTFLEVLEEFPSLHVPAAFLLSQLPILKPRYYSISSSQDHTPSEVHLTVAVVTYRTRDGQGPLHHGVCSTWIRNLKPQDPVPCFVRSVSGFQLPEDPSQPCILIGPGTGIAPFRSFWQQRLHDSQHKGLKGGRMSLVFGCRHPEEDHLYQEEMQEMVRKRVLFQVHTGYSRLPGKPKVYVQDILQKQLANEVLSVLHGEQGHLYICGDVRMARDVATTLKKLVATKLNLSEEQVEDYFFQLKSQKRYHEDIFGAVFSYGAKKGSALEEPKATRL
Briefly: NOS inhibition, oxyhemoglobin (hemoglobin capture) test, recombinant iNOS. In kind it is biochemical. The following applies: dipeptide-like series, recombinant enzyme, 20 µM arginine, triplicate, NI = <50% inhibition at 100 μM. The gist of the method:
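Full-length E. coli-expressed recombinant enzyme; NO formation followed kinetically at 401 nm via oxyhemoglobin capture at 30 °C in 100 mM Hepes pH 7.5 with NADPH, BH4, FAD, FMN, DTT; arginine 20 µM (iNOS) or 10 µM (nNOS, plus calmodulin and CaCl2). Screened at 100 and 10 μM; IC50 if >50% inhibition at 100 μM.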

Molecules are shown by their SMILES.

For `CCSC(=N)NCCC[C@H](N)C(=O)N[C@H]1CCCN(Cc2ccccc2)C1` [Compound 7], the IC50 was 73.4 µM.

As to `CCSC(=N)NCCC[C@H](N)C(=O)N[C@H]1CCCN(Cc2ccc(Cl)c(C(F)(F)F)c2)C1` [Compound 17], the IC50 turned out to be 12.9 µM.

For `CCSC(=N)NCCC[C@H](N)C(=O)N[C@H]1CCCN(Cc2cccc(-c3cccc(C(=O)O)c3)c2)C1` [Compound 27], the inhibition at 100 µM (read-out: IC50 (μM) iNOS (Mouse)) was less than 50%.
